Holding throughout (assay): NCI anticancer screen, dose series, 48 h
Assay [1] deals with LOX IMVI melanoma.
The subject of assay [2] is 786-0 renal.
In assay [3] the test system is RXF 393 renal.
Assay [4] deals with SNB-75 CNS.
Assay [5] concerns SK-MEL-28 melanoma.
For assay [6], the system named is HCT-116 colon.
Assay [7] concerns SK-OV-3 ovarian.
Assay [8] relates to OVCAR-5 ovarian.
Assay [9] concerns KM12 colon.
Assay [10] relates to COLO 205 colon.
Assay [11] concerns HOP-92 NSCLC.
The subject of assay [12] is SNB-19 CNS.
Assay [13] relates to HCT-15 colon.
For assay [14], the system named is OVCAR-4 ovarian.
For assay [15], the system named is SN12C renal.

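Grown in 96-well plates, cells were treated for 48 hours with each compound at five concentrations. Insufficient inhibition: endpoint recorded as highest concentration tested. TGI denotes the concentration required for complete inhibition of growth.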

We go through 9 molecules from PubChem BioAssay (NCI).

`NC12CC3CC(C1)CC(Cl)(C3)C2`: the TGI in assay [1], in assay [2], in assay [3], in [4], in assay [5] and in assay [6] was > 100 µM throughout. The TGI in assay [7], in [8], in assay [9], in [10] and in [11] was > 100 µM each time.
As to `COc1ccc(-c2onc(-c3c(C)cc(C)cc3C)c2C2=NCCCN2)cc1`, the TGI in assay [1], in assay [12], in assay [2], in assay [13], in assay [3] and in assay [5] was > 100 µM in each case. For the same molecule, the TGI in [14], in [6], in assay [7], in [8], in assay [9] and in [10] was > 100 µM in each case. In addition, in [15], the TGI is > 100 µM.
On to `CCOC(=O)c1nc2ccc(Cl)cc2c2c1CCO2`, for which the TGI in [1] is > 100 µM; in assay [12] it was > 100 µM; in assay [2] it was > 100 µM; in assay [13] it was > 100 µM; in assay [3] it was > 100 µM; in [4], 88.6 µM. The TGI in assay [5], in assay [14], in assay [6], in assay [7], in assay [8] and in [9] was > 100 µM throughout. The TGI in assay [10] and in assay [15] was > 100 µM throughout.
Regarding `COC(=O)[C@H]1C=C[C@@H](C)n2c(=O)c3ccccc3c(=O)n21`, the TGI in assay [1], in assay [12], in assay [2], in assay [13], in [3] and in assay [4] was > 100 µM in each case. The TGI in assay [5], in [14], in assay [6], in [7], in [8] and in assay [9] was > 100 µM in each case. The TGI in assay [10], in assay [11] and in assay [15] was > 100 µM in each case.
As to `CC(=O)c1c(O)ccc2c1CC(CC=O)O2` (stereo not drawn), the TGI in assay [1] is 60.9 µM; in [12], > 100 µM; in assay [2] it was > 100 µM; in assay [13], > 100 µM; in assay [3], > 100 µM; in assay [4], > 100 µM. The TGI in assay [5] is > 100 µM; in assay [14], > 100 µM; in assay [6] it was 41.4 µM; in assay [7] it was > 100 µM; in assay [8], > 100 µM; in [9], > 100 µM. In addition, the TGI in assay [10], in [11] and in assay [15] was > 100 µM each time.
`NC(=O)C12C3C4C1C1C2C3C41C(N)=O` (stereo not drawn): the TGI in assay [1], in [12], in assay [2], in assay [13], in assay [3] and in assay [4] was > 100 µM in each case. The TGI in [5], in assay [14], in assay [6], in [7], in [8] and in [9] was > 100 µM throughout. The TGI in [10], in assay [11] and in assay [15] was > 100 µM throughout.
Take `CN(C)CCCSc1c2ccccc2nc2cc(NCC(=O)Nc3ccccc3-c3ccccc3NC(=O)CNc3ccc4c(SCCCN(C)C)c5ccccc5nc4c3)ccc12`: the TGI in [1], in assay [12], in assay [2], in assay [13], in assay [3] and in assay [4] was > 100 µM throughout. Besides, the TGI in assay [5], in assay [14], in assay [6], in assay [7], in [8] and in [9] was > 100 µM each time. Moreover, the TGI in assay [10], in [11] and in assay [15] was > 100 µM in each case.
Turning to `NC(=O)c1csc(CCCCCCc2nc(C(N)=O)cs2)n1`, the TGI in assay [1] is > 100 µM; in assay [12] it was > 100 µM; in assay [2], > 73.7 µM; in [13], > 100 µM; in [3], > 100 µM; in assay [4], > 100 µM. Further, the TGI in assay [5], in assay [14], in assay [6], in assay [7], in assay [8] and in assay [9] was > 100 µM throughout. Moreover, the TGI in assay [10], in assay [11] and in assay [15] was > 100 µM in each case.
For the molecule `COC1=CC(C2c3cc4c(cc3[C@@H](Nc3ccc([N+](=O)[O-])cc3)C3COC(=O)[C@H]23)OCO4)=CC(=O)C1=O` (stereo partly drawn), the TGI in assay [1] is 13.2 µM; in [12] it was > 86.5 µM; in assay [2] it was 4.86 µM; in assay [13] it was 34.1 µM; in [3], 86.8 µM; in assay [4], 16 µM. Moreover, the TGI in assay [5] is > 94.8 µM; in [14] it was > 100 µM; in assay [6], 27.5 µM; in [7], 6.98 µM; in assay [8] it was 41 µM; in assay [9] it was 26.4 µM. Moreover, the TGI in assay [10] is 73.2 µM; in assay [11] it was > 53 µM; in assay [15], 7.59 µM.
